# Measured values taken from PubChem BioAssay AID2060902 (Molecular Pharmacology Branch, DTP, NCI, 2025).
# Test system: 485368-065-R3-J5-PDC spheroids with HUVEC/MSC, viability
# Assay: Anticancer human tumor 485368-065-R3-J5-PDC patient-derived pancreatic carcinoma cell line growth inhibition [RAS]
# Conditions: for viability, T/C: stronger effect = lower value
# Source text: RAS pathway inhibitors in Combinations in Complex Spheroids
# A high-throughput screen of multi-cell type tumor spheroids was designed to identify active combinations of RAS pathway inhibitors and targeted small molecules. Complex spheroids include a stromal component modeled by human endothelial cells (HUVEC) and fibroblasts modeled by human mesenchymal stem cells (MSCs). The concentration ranges selected for each drug and investigational agent were based upon clinically achievable concentrations if the clinical Cmax of the agent was known.
# Compounds. The drugs and investigational agents: abemaciclib (NSC768073), cobimetinib (NSC768068), divarasib (GDC6063, NSC841802), docetaxel (NSC628503), GDC-1971 (RLY-1971, NSC841576), gemcitabine (NSC613327), inavolisib (NSC800729), ipatasertib (NSC767898), KB-0742 (NSC834161), MRTX-1133 (NSC836407), osimertinib (NSC779217), RMC-4630 (NSC839698), RMC-6236 (NSC851965), RMC-6291 (NSC852671), Ro-3306 (NSC812927), sapanisertib (NSC764658), SN-38 (NSC673596), staurosporine (NSC755774), SY5609 (NSC837396), and tovorafenib (DAY101, NSC766906), were obtained from the National Cancer Institute (NCI) Developmental Therapeutics Program Chemical Repository. The FDA-approved anticancer drug set is available from the NCI Developmental Therapeutics Program. […] The stock solutions were prepared in dimethyl sulfoxide (DMSO, Sigma-Aldrich, St. Louis, MO, cat. D2650) at 800-fold the tested concentration and stored at -70 degrees C prior to their use. All drugs and investigational agents were tested over a range starting from a high concentration at or near the clinical Cmax and decreasing in half-log increments. If the clinical Cmax for an agent had not been determined, the highest concentration tested was 10 microM.
# Cell Culture. All cells were maintained in an incubator at 37 degrees C and 5% CO2 with 95% humidity. The PDC lines were cultured according to standard operating procedures established by the NCI PDMR. All PDCs were thawed and cultured in Matrigel-coated flasks prepared with a working solution of 1X Ham's F-12 nutrient mix, without supplementation (Invitrogen, Waltham, MA, cat. 11765054), 100 U/mL penicillin-streptomycin (Invitrogen, cat. 15140122), and 2.5% Matrigel (Corning Inc., Corning, NY, cat. 354248) for the first three passages. The 362531-283-R-J2-PDC and 782815-120-R-J1-PDC lines were cultured in 6C/Colon 1B media, which includes advanced DMEM/F-12 (Thermo Fisher Scientific, cat. 12634028), 10 mM HEPES (Thermo Fisher Scientific, cat. 15630080), 1X GlutaMAX supplement (Thermo Fisher Scientific, cat. 35050061), 0.1 mg/mL primocin (InvivoGen, San Diego, CA, cat. ant-pm-2), 10% defined fetal bovine serum, heat inactivated (HyClone Laboratories Inc., Logan, UT, cat. SH30070.03HI), 50% L-WRN conditioned media (ATCC, cat. CRL-3276), 1.25 mM N-Acetyl-L-cysteine (Sigma-Aldrich, cat. A9165), 10 mM nicotinamide (Sigma-Aldrich, cat. N0636), 1X B-27 supplement (Thermo Fisher Scientific, cat. 17504044), 1X N-2 supplement (Thermo Fisher Scientific, cat. 17502048), 50 ng/mL human EGF (Thermo Fisher Scientific, cat. PHG0311), and 10 microM Y-27632 dihydrochloride (Tocris Bioscience, cat. 1254). The K12877-001-R-J1-PDC line was cultured in 6I media, which includes all 6C/Colon 1B media plus 10 ng/mL human FGF-10 (PeproTech, cat. 100-26), 1 ng/mL human FGF-2 (PeproTech, cat. 100-18B), 1 µM prostaglandin E2 (Tocris Bioscience, cat. 2296), […] hydrocortisone (Sigma-Aldrich, cat. H4001), and […] bovine insulin (Sigma-Aldrich, cat. I6634). The K86415-001-R-J1-PDC line was cultured in 6D media, which includes all 6C/Colon 1B media components minus the L-WRN conditioned media. The 485176-168-R4-J1-PDC was cultured in PANC media, which includes all 6C/Colon 1B media plus 100 ng/mL human FGF-10 (PeproTech, cat. 100-26), 500 nM SB-431542 (Selleckchem, cat. S1067), and 10 nM gastrin (Tocris Bioscience, cat. 3006). […]
# [1] = curve of first compound, second compound 0.0316 µM
# [2] = curve of first compound, second compound 0.1 µM
# [3] = curve of first compound, second compound 0.316 µM
# [4] = curve of first compound, second compound 1 µM
# [5] = curve of first compound, second compound 3.16 µM
# [6] = curve of first compound, second compound 10 µM
# [7] = second compound 0.0316 µM, first compound 0.0316 µM
# [8] = second compound 0.0316 µM, first compound 0.1 µM
# [9] = second compound 0.0316 µM, first compound 0.316 µM
# [10] = second compound 0.0316 µM, first compound 1 µM
# [11] = second compound 0.1 µM, first compound 0.0316 µM
# [12] = second compound 0.1 µM, first compound 0.1 µM
# [13] = second compound 0.1 µM, first compound 0.316 µM
# [14] = second compound 0.1 µM, first compound 1 µM
# [15] = second compound 0.316 µM, first compound 0.0316 µM
# [16] = second compound 0.316 µM, first compound 0.1 µM
# [17] = second compound 0.316 µM, first compound 0.316 µM
# [18] = second compound 0.316 µM, first compound 1 µM
# [19] = second compound 1 µM, first compound 0.0316 µM
# [20] = second compound 1 µM, first compound 0.1 µM
# [21] = second compound 1 µM, first compound 0.316 µM
# [22] = second compound 1 µM, first compound 1 µM
# [23] = second compound 3.16 µM, first compound 0.0316 µM
# [24] = second compound 3.16 µM, first compound 0.1 µM
# [25] = second compound 3.16 µM, first compound 0.316 µM
# [26] = second compound 3.16 µM, first compound 1 µM
# [27] = second compound 10 µM, first compound 0.0316 µM
# [28] = second compound 10 µM, first compound 0.1 µM
# [29] = second compound 10 µM, first compound 0.316 µM
# [30] = second compound 10 µM, first compound 1 µM
# 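Also: spheroids exposed to agents for seven days before readout.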
compound,measurement,setting,value
Nc1ccn(C2OC(CO)C(O)C2(F)F)c(=O)n1 (stereo unspecified) + C#Cc1c(F)ccc2cc(O)cc(-c3ncc4c(N5CC6CCC(C5)N6)nc(OCC56CCCN5CC(F)C6)nc4c3F)c12,IC50,[1],6.36 nM
same,IC50,[2],6.3 nM
same,IC50,[3],6.51 nM
same,IC50,[4],6.09 nM
same,IC50,[5],5.96 nM
same,IC50,[6],< 3.16 nM
same,"viability, T/C","second compound 0.0316 µM, first compound 0.00316 µM",98.4%
same,"viability, T/C","second compound 0.0316 µM, first compound 0.01 µM",18.8%
same,"viability, T/C",[7],8.96%
same,"viability, T/C",[8],11.8%
same,"viability, T/C",[9],11.1%
same,"viability, T/C",[10],14.4%
same,"viability, T/C","second compound 0.1 µM, first compound 0.00316 µM",93.6%
same,"viability, T/C","second compound 0.1 µM, first compound 0.01 µM",20.7%
same,"viability, T/C",[11],10.9%
same,"viability, T/C",[12],9.95%
same,"viability, T/C",[13],11.6%
same,"viability, T/C",[14],12.8%
same,"viability, T/C","second compound 0.316 µM, first compound 0.00316 µM",94.5%
same,"viability, T/C","second compound 0.316 µM, first compound 0.01 µM",23.5%
same,"viability, T/C",[15],10.9%
same,"viability, T/C",[16],10.3%
same,"viability, T/C",[17],11.8%
same,"viability, T/C",[18],11.8%
same,"viability, T/C","second compound 1 µM, first compound 0.00316 µM",90.4%
same,"viability, T/C","second compound 1 µM, first compound 0.01 µM",19.5%
same,"viability, T/C",[19],12.1%
same,"viability, T/C",[20],8.97%
same,"viability, T/C",[21],10.8%
same,"viability, T/C",[22],11%
same,"viability, T/C","second compound 3.16 µM, first compound 0.00316 µM",89%
same,"viability, T/C","second compound 3.16 µM, first compound 0.01 µM",18.3%
same,"viability, T/C",[23],9.24%
same,"viability, T/C",[24],9.65%
same,"viability, T/C",[25],9.37%
same,"viability, T/C",[26],9.7%
same,"viability, T/C","second compound 10 µM, first compound 0.00316 µM",37.7%
same,"viability, T/C","second compound 10 µM, first compound 0.01 µM",20.8%
same,"viability, T/C",[27],8.12%
same,"viability, T/C",[28],7.5%
same,"viability, T/C",[29],8.95%
same,"viability, T/C",[30],9.6%
C[C@@H](NC(=O)c1ncnc(N)c1Cl)c1ncc(C(=O)Nc2cc(C(F)(F)F)c(Cl)cn2)s1 + C#Cc1c(F)ccc2cc(O)cc(-c3ncc4c(N5CC6CCC(C5)N6)nc(OCC56CCCN5CC(F)C6)nc4c3F)c12,IC50,[1],> 10000 nM
same,IC50,[2],> 10000 nM
same,IC50,[3],> 10000 nM
same,IC50,[4],> 10000 nM
same,IC50,[5],> 10000 nM
same,IC50,[6],528 nM
same,"viability, T/C",[7],103%
same,"viability, T/C",[8],105%
same,"viability, T/C",[9],114%
same,"viability, T/C",[10],114%
same,"viability, T/C","second compound 0.0316 µM, first compound 3.16 µM",98%
same,"viability, T/C","second compound 0.0316 µM, first compound 10 µM",69.7%
same,"viability, T/C",[11],111%
same,"viability, T/C",[12],115%
same,"viability, T/C",[13],113%
same,"viability, T/C",[14],113%
same,"viability, T/C","second compound 0.1 µM, first compound 3.16 µM",96.5%
same,"viability, T/C","second compound 0.1 µM, first compound 10 µM",57.9%
same,"viability, T/C",[15],101%
same,"viability, T/C",[16],104%
same,"viability, T/C",[17],105%
same,"viability, T/C",[18],100%
same,"viability, T/C","second compound 0.316 µM, first compound 3.16 µM",93.2%
same,"viability, T/C","second compound 0.316 µM, first compound 10 µM",75.2%
same,"viability, T/C",[19],109%
same,"viability, T/C",[20],106%
same,"viability, T/C",[21],104%
same,"viability, T/C",[22],106%
same,"viability, T/C","second compound 1 µM, first compound 3.16 µM",96%
same,"viability, T/C","second compound 1 µM, first compound 10 µM",69.9%
same,"viability, T/C",[23],97.6%
same,"viability, T/C",[24],98.6%
same,"viability, T/C",[25],94.5%
same,"viability, T/C",[26],93.3%
same,"viability, T/C","second compound 3.16 µM, first compound 3.16 µM",89.1%
same,"viability, T/C","second compound 3.16 µM, first compound 10 µM",62%
same,"viability, T/C",[27],53.5%
same,"viability, T/C",[28],50.5%
same,"viability, T/C",[29],50.3%
same,"viability, T/C",[30],46%
same,"viability, T/C","second compound 10 µM, first compound 3.16 µM",52.6%
same,"viability, T/C","second compound 10 µM, first compound 10 µM",46.9%
C=CC(=O)Nc1cc(Nc2nccc(-c3cn(C)c4ccccc34)n2)c(OC)cc1N(C)CCN(C)C,"viability, T/C",compound 0.00316 µM,108% [middle of 4 runs]
same,"viability, T/C",compound 0.01 µM,94.1% [middle of 4 runs]
same,"viability, T/C",compound 0.0316 µM,109% [middle of 4 runs]
same,"viability, T/C",compound 0.1 µM,106% [middle of 4 runs]
same,"viability, T/C",compound 0.316 µM,104% [middle of 4 runs]
same,"viability, T/C",compound 1 µM,97.5% [middle of 4 runs]
same,IC50,curve of compound,> 1000 nM
